We go through two compounds from patent US5393883A, “Antiviral combinations and compounds therefor” (Burroughs Wellcome Co., priority 1988, dated 1995).

The test concerns HSV-2. The test is described as follows: dye uptake method: prevention of HSV-2 cytopathic effect in Vero cells, acyclovir with ribonucleotide reductase inhibitor (Compound A). The class given is cell-based. As for the experimental part: The ribonucleotide reductase inhibitors of the present invention were shown by use of the dye uptake method described by McLaren, Ellis and Hunter in Antivir. Res. 3, 223-234 (1983) to potentiate the in vitro antiviral effects of acyclovir. Vero cells (20,000 cells/well) were incubated in microtiter wells for 24 hours. Various concentrations of acyclovir and the ribonucleotide reductase inhibitors were added and the cells were infected with 30 infectious particles/well of HSV-1 or HSV-2. After 3 days incubation, the antiviral effects were assessed by determining the prevention of the cytopathic effects of the viruses. Examples of the synergistic antiherpes activity of 2-acetylpyridine (4,5-dihydro-5-thioxo-1,3,4-thiadiazol-2-yl)-hydrazone (Compound A) and acyclovir (ACV) are given below.
On the technique in general: Damage to the host cells serves as the signal in cytopathic effect assays.

Read-outs that look alike come from different tables or passages of the source.

As for `CC(=NNc1n[nH]c(=S)s1)c1ccccn1` [Compound A, 2-acetylpyridine (4,5-dihydro-5-thioxo-1,3,4-thiadiazol-2-yl)-hydrazone], the inhibition at 0.4 µM (Human alphaherpesvirus 2, Vero, 0.4 μM Compound A alone, read-out: % inhibition of virus replication by Compound A alone) is 0%. Besides, under “Human alphaherpesvirus 2, Vero, 0.9 μM Compound A alone, read-out: % inhibition of virus replication by Compound A alone”, the inhibition at 0.9 µM was 0%. Moreover, the inhibition at 1.3 µM (Human alphaherpesvirus 2, Vero, 1.3 μM Compound A alone, read-out: % inhibition of virus replication by Compound A alone) was 21%. For the same compound, the IC50 (Human alphaherpesvirus 2, Vero, read-out: IC50 of Compound A alone (inhibition of virus replication)) is 1.6 µM.
Regarding `Nc1nc2c(ncn2COCCO)c(=O)[nH]1` [ACV, 9-(2-hydroxyethoxymethyl)guanine, reference compound], for the setting “ACV alone”, the “IC50 Calculated (theoretical value for the additive combined effects of ACV and Compound A)” value was 5.7 µM. Also, for the setting “Human alphaherpesvirus 2, Vero, 72 h, read-out: IC50 Observed (concentration of ACV required to inhibit HSC2 replication by 50%)”, the IC50 came out at 5.77 µM.

As usually defined, the inhibition is the share of the control response that was lost under treatment.
